ChEMBL document CHEMBL1201862, “PubChem BioAssay data set” (2004)
Activity calls are given as the source filed them.

Legend:
[1] = target: T1, Histone-lysine N-methyltransferase NSD2 (Homo sapiens, UniProt O96028); format: biochemical
T1 sequence (O96028 whole entry): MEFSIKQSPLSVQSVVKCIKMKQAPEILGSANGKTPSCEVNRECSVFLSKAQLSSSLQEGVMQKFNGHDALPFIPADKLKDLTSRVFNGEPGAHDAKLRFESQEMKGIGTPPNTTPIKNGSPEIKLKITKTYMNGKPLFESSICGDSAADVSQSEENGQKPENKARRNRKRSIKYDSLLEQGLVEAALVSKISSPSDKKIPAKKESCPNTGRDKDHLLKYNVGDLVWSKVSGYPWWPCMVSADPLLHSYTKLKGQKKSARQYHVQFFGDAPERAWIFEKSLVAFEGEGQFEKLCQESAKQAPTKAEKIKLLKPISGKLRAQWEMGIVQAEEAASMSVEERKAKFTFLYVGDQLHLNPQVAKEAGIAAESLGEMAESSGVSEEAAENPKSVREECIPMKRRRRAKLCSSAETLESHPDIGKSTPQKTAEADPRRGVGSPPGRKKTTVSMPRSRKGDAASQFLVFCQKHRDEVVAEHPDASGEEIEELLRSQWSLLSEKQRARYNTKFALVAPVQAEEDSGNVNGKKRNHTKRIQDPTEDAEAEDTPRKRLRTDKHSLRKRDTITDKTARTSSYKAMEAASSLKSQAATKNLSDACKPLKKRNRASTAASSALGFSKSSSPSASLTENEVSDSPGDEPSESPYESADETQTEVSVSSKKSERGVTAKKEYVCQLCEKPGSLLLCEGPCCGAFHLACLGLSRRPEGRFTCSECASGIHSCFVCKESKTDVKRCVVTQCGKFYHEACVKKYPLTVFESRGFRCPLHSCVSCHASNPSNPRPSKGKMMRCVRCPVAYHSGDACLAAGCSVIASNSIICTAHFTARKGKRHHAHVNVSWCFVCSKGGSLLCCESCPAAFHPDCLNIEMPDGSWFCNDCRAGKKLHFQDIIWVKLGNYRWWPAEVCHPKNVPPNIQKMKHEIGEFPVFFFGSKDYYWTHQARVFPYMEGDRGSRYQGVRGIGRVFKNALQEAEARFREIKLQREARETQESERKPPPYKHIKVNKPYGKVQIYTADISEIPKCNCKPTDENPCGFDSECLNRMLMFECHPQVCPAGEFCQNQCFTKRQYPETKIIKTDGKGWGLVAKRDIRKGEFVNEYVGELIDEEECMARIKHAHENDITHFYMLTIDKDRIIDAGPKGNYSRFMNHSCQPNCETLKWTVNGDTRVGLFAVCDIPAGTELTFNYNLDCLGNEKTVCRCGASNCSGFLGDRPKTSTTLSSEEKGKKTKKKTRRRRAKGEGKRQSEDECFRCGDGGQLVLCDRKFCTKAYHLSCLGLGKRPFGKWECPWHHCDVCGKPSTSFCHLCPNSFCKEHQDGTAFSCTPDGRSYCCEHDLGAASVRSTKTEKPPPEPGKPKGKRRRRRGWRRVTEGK

[2] = target: Large T antigen (Simian virus 40, UniProt P03070); format: functional, Betapolyomavirus macacae;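 note: Confirmatory-stage PubChem screen for compounds that inhibit SV40 T antigen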
[3] = target: Eukaryotic translation initiation factor 4E (Mus musculus, UniProt P63073); assay: eIF4E–eIF4G protein interaction inhibitors, dose response, biochemical, TR-FRET (AID 855); format: functional;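 note: potency for disrupting eIF4E binding to eIF4GI seen as loss of FRET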
Eukaryotic translation initiation factor 4E, sequence (P63073 whole entry, the tested form may be a part): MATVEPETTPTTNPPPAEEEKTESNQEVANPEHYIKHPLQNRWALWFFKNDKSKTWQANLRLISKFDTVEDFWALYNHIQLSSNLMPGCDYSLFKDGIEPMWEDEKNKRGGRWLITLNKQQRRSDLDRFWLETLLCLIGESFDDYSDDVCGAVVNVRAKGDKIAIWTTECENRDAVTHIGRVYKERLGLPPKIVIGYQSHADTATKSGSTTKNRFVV

[4] = target: T2, Oxysterols receptor LXR-beta (Homo sapiens, UniProt P55055); format: functional, cell-based;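 note: Cell-based luminescence dose-response assay of agonist activity at LXR, run as a confirmatory counterscreen to a daf-12 agonist screen; HEK293 cells with Gal4-LXR fusion and GAL4-driven luciferase reporter; agonist potency from rising luciferase signal of a Gal4-LXR reporter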
T2 sequence (P55055 whole entry): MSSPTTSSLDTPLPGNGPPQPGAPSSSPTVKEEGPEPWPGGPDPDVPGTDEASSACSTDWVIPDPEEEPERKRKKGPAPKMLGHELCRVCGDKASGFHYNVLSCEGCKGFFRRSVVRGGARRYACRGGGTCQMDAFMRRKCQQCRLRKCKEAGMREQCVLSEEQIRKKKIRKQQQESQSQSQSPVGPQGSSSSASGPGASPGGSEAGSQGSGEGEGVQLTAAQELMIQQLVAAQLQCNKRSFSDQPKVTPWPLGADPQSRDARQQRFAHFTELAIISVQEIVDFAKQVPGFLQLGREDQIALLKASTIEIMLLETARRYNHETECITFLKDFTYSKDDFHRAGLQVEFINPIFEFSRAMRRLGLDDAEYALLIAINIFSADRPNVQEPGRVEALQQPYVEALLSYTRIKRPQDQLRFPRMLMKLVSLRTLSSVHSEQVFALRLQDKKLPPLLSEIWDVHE

[5] = inhibitors of intracellular T. cruzi replication, confirmation, NIH3T3 host cells, beta-gal luminescence (AID 2044); format: functional, cell-based;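 note: intracellular parasites grown in NIH/3T3 mouse fibroblasts as host cells; luminescent beta-galactosidase reporter signal from transgenic T. cruzi replicating inside host cells; inhibitors lower the luminescence signal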
[6] = target: Intestinal-type alkaline phosphatase (Mus musculus, UniProt P24822); assay: PubChem AID 488874; format: functional
[7] = target: Nonstructural protein 1 (Influenza A virus, UniProt Q194T2); format: functional, Influenza A virus (A/California/07/2009(H1N1))
Nonstructural protein 1, sequence (Q194T2 whole entry): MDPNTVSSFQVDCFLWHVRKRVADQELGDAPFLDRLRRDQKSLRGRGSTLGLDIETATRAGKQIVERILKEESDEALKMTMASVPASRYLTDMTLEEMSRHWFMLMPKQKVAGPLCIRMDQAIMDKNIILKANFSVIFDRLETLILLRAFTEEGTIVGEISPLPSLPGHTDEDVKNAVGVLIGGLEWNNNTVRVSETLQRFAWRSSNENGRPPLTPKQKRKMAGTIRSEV

[8] = target: Serine/threonine-protein kinase PAK 4 (Homo sapiens, UniProt O96013); format: functional;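 note: value obtained within a kinome profiling panel in which PAK4 was one of the panel members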
Serine/threonine-protein kinase PAK 4, sequence (O96013 whole entry): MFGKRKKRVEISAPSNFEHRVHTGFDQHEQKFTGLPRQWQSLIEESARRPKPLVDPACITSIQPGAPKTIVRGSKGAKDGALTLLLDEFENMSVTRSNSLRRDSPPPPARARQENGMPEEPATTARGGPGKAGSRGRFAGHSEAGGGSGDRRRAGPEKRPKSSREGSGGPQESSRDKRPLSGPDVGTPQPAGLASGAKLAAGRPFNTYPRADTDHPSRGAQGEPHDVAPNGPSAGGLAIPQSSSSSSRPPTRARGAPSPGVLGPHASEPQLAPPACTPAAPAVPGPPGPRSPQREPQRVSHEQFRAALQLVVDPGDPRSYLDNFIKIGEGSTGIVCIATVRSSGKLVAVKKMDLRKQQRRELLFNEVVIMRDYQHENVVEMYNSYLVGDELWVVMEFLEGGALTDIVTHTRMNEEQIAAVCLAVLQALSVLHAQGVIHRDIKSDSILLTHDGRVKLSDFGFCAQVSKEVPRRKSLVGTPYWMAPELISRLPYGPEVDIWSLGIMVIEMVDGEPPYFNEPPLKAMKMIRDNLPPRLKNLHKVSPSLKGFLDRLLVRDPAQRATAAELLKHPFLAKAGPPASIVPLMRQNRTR

[9] = target: Mast/stem cell growth factor receptor Kit (Homo sapiens, UniProt P10721); format: functional;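 note: KIT entry within a kinase panel assay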
[10] = target: Focal adhesion kinase 1 (Homo sapiens, UniProt Q05397); format: functional;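 note: measured as one member of a kinome panel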
[11] = target: Protein kinase C iota type (Homo sapiens, UniProt P41743); format: functional;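 note: measured within a kinome-wide kinase panel, PRKCI as panel member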
[12] = target: Serine/threonine-protein kinase PLK1 (Homo sapiens, UniProt P53350); format: functional;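 note: PLK1 measured as one member of a kinome-wide profiling panel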
[13] = target: Casein kinase I isoform gamma-1 (Homo sapiens, UniProt Q9HCP0); format: functional;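 note: measured as the CSNK1G1 member of a kinome profiling panel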
[14] = target: Homeodomain-interacting protein kinase 2 (Homo sapiens, UniProt Q9H2X6); format: functional;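 note: measured within a kinome-wide kinase profiling panel, HIPK2 being one panel member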
Homeodomain-interacting protein kinase 2, sequence (Q9H2X6 whole entry): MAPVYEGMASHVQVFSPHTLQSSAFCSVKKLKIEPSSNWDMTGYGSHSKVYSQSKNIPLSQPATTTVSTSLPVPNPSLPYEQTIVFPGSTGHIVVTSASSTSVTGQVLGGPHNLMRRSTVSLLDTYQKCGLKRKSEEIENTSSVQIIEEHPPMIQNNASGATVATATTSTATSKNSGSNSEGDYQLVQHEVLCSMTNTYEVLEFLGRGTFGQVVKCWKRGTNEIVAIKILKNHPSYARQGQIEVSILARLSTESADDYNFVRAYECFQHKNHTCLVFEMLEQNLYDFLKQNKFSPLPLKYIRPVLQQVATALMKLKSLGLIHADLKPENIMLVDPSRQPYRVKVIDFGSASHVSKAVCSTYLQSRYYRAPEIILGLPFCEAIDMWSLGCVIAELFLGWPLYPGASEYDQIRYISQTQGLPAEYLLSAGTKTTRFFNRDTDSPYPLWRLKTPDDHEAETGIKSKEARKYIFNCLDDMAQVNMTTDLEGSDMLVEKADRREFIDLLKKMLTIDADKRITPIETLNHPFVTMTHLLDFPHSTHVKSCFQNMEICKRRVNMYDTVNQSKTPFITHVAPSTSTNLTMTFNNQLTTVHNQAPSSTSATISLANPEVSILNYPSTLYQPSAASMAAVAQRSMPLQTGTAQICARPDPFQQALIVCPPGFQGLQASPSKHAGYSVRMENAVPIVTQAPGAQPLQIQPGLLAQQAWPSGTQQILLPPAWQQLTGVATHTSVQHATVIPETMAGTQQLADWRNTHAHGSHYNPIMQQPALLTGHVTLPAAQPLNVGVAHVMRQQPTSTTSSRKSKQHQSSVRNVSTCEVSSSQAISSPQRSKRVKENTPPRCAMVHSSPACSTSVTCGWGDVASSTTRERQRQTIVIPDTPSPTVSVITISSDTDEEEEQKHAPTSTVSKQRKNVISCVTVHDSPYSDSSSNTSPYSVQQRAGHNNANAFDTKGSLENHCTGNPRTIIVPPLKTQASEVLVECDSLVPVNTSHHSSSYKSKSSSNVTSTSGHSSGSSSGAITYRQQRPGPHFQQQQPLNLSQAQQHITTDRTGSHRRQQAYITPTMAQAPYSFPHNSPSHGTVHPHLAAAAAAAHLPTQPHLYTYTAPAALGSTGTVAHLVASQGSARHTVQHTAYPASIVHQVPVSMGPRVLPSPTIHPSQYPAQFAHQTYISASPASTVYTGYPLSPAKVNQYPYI

[15] = target: Homeodomain-interacting protein kinase 4 (Homo sapiens, UniProt Q8NE63); format: functional
[16] = target: Tyrosine-protein kinase ITK/TSK (Homo sapiens, UniProt Q08881); format: functional;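 note: affinity for ITK measured as one member of a broad kinase panel profiling binding across the kinome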
Tyrosine-protein kinase ITK/TSK, sequence (Q08881 whole entry): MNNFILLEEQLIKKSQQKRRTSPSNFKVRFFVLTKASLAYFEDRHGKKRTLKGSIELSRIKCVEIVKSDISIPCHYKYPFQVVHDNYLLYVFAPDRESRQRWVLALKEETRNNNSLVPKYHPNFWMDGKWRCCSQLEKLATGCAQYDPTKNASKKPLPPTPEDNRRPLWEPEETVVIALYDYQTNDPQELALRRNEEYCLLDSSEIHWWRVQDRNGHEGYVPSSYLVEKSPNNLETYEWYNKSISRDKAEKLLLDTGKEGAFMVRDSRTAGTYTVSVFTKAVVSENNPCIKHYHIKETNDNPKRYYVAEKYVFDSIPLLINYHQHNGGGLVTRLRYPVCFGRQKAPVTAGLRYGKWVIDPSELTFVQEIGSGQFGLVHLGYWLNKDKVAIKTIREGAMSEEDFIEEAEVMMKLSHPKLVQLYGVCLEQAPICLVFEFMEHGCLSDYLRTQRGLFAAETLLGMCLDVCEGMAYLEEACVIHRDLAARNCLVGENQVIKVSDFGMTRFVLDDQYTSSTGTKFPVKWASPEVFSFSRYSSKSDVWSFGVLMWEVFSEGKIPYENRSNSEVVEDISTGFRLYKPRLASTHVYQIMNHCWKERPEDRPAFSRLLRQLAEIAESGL

[17] = target: Tyrosine-protein kinase Fer (Homo sapiens, UniProt P16591); format: functional;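 note: FER tested as one member of a kinome panel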
[18] = target: Receptor-type tyrosine-protein kinase FLT3 (Homo sapiens, UniProt P36888); format: functional;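 note: FLT3 was tested as one member of a kinome-wide kinase panel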
Receptor-type tyrosine-protein kinase FLT3, sequence (P36888 whole entry): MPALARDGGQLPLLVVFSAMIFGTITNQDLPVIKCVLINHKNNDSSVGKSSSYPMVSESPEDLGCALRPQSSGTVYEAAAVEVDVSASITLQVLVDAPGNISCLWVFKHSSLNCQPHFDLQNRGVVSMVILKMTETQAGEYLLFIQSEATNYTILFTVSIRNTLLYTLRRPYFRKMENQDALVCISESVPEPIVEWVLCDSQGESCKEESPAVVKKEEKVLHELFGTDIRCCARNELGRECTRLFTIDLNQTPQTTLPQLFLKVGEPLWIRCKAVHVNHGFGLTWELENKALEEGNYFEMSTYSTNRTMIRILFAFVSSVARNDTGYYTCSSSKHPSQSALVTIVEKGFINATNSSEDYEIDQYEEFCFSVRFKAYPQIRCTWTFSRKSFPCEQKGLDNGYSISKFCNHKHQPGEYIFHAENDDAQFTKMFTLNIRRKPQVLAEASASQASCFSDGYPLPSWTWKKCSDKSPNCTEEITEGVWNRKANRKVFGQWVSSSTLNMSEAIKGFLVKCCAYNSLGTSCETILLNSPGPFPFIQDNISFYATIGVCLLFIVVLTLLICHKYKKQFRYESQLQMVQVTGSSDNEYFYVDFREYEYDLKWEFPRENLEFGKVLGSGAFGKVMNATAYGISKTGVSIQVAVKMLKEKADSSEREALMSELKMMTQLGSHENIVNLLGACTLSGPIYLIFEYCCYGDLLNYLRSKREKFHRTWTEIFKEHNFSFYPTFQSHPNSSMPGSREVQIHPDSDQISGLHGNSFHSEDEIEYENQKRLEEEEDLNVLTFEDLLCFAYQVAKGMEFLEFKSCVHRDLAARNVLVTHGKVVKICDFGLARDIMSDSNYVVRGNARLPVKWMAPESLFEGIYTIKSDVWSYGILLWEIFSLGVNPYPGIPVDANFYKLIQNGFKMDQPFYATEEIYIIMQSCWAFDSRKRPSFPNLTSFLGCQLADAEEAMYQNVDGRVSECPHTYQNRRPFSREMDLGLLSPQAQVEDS

[19] = target: Death-associated protein kinase 3 (Homo sapiens, UniProt O43293); format: functional;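 note: measured as one member of a kinome-wide profiling panel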
Death-associated protein kinase 3, sequence (O43293 whole entry): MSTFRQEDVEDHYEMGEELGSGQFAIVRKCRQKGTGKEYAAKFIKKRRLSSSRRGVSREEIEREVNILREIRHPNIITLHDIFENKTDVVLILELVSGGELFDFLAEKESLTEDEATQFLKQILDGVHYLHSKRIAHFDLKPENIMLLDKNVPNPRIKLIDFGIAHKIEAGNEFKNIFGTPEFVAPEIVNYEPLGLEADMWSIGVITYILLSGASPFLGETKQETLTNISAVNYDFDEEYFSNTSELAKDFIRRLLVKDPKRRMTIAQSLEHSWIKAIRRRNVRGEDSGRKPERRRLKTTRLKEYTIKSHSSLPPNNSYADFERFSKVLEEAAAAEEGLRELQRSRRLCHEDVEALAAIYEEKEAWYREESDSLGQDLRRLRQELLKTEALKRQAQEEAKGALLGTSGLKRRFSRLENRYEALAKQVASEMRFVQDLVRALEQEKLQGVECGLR

[20] = target: BDNF/NT-3 growth factors receptor (Homo sapiens, UniProt Q16620); format: functional;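 note: NTRK2 measured as one member of a broad kinome-wide kinase profiling panel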
[21] = target: Serine/threonine-protein kinase Chk2 (Homo sapiens, UniProt O96017); format: functional;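 note: CHEK2 entry within a kinome-wide screening panel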
Serine/threonine-protein kinase Chk2, sequence (O96017 whole entry): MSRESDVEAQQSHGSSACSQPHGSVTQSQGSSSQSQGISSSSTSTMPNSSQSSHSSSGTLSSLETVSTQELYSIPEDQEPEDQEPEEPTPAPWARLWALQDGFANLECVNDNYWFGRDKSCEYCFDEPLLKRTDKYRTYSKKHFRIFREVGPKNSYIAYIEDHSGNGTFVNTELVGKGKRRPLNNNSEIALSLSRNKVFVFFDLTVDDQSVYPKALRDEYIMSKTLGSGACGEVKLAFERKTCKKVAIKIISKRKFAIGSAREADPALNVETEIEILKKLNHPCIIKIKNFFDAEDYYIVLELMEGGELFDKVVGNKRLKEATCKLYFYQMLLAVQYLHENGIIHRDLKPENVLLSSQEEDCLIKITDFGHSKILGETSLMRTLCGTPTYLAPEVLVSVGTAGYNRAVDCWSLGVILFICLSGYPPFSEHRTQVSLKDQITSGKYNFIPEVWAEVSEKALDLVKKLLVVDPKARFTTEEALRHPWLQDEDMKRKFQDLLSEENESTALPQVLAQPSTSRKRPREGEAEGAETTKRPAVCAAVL

SMILES: O=C1C=C(N2CCCCC2)c2ccccc2C1=O
- AC50 [1]: 1.11 µM (active)

SMILES: O=C(O)C1Nc2c(O)cc(Cl)c([N+](=O)[O-])c2C2C=CCC12 (stereo unspecified)
- IC50 [2]: 9.86 µM (active)
- IC50 [3]: 5.21 µM (active)

SMILES: Clc1ccc2nc(-c3ccc(Br)s3)cn2c1
- EC50 [4]: > 67.5 µM (inactive)

SMILES: O=C(CCc1ccccc1)NNc1cc(N2CCCCC2)nc(N2CCCCC2)n1
- EC50 [5]: 3.74 µM (active)

SMILES: Oc1ccc(N=Nc2c(O)ccc3ccccc23)cc1
- IC50 [6]: 17.4 µM (active)
- IC50 [7]: 17.5 µM (active)

SMILES: Cc1n[nH]c2ccc(-c3cncc(OCC(N)Cc4cccc(Cl)c4)c3)cc12 (stereo unspecified)
- Ki [8]: 0.0316 µM (active)
- Ki [9]: > 1.26 µM (inactive)
- Ki [10]: > 1.58 µM (inactive)
- Ki [11]: 1 µM (active)
- Ki [12]: > 7.94 µM (inactive)
- Ki [13]: 0.0794 µM (active)
- Ki [14]: 0.0794 µM (active)
- Ki [15]: 1.58 µM (active)
- Ki [16]: > 1.58 µM (inactive)
- Ki [17]: > 1.58 µM (inactive)
- Ki [18]: 0.158 µM (active)
- Ki [19]: 0.0794 µM (active)
- Ki [20]: > 5.01 µM (inactive)
- Ki [21]: 0.631 µM (active)
